Experiment [1] addresses Tyrosine-protein kinase Fyn (Homo sapiens) (UniProt P06241). Kind of experiment: Selectivity interaction (Upstate Kinase Profiler service (Millipore)) EUB0000056c FYN. Particulars: at 1 µM.
In experiment [2] the target is Serine/threonine-protein kinase PAK 2 (Homo sapiens) (UniProt Q13177). Kind of experiment: Selectivity interaction (Upstate Kinase Profiler service (Millipore)) EUB0000056c PAK2. Particulars: at 1 µM.
Experiment [3] deals with Ribosomal protein S6 kinase beta-2 (Homo sapiens) (UniProt Q9UBS0). Description: Selectivity interaction (ProQinase) EUB0000171b RPS6KB2.
Chain of Ribosomal protein S6 kinase beta-2 (Homo sapiens) (Q9UBS0 whole entry): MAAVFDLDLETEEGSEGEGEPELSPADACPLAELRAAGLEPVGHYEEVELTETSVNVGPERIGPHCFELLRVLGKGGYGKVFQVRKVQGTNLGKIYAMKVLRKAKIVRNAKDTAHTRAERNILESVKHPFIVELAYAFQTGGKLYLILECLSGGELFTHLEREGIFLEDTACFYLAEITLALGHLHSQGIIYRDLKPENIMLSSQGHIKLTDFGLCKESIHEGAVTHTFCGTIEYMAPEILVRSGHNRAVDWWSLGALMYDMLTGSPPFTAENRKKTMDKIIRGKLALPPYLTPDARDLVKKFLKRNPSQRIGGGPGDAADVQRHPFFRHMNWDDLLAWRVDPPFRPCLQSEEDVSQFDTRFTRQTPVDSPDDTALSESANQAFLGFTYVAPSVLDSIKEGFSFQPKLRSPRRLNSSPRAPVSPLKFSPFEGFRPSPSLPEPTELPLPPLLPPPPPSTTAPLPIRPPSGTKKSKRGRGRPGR
Experiment [4] has as its target cAMP-dependent protein kinase catalytic subunit alpha (Homo sapiens, UniProt P17612). Kind of experiment: Selectivity interaction (KinomeScan (DiscoverX)) EUB0000092b PRKACA. Particulars: at 10 µM.
For experiment [5], the target named is High affinity nerve growth factor receptor (Homo sapiens, UniProt P04629). Description: Selectivity interaction (KinomeScan (DiscoverX)) EUB0000695a NTRK1. As to conditions: at 100 nM.
Chain of High affinity nerve growth factor receptor (P04629 33-796 limits assumed): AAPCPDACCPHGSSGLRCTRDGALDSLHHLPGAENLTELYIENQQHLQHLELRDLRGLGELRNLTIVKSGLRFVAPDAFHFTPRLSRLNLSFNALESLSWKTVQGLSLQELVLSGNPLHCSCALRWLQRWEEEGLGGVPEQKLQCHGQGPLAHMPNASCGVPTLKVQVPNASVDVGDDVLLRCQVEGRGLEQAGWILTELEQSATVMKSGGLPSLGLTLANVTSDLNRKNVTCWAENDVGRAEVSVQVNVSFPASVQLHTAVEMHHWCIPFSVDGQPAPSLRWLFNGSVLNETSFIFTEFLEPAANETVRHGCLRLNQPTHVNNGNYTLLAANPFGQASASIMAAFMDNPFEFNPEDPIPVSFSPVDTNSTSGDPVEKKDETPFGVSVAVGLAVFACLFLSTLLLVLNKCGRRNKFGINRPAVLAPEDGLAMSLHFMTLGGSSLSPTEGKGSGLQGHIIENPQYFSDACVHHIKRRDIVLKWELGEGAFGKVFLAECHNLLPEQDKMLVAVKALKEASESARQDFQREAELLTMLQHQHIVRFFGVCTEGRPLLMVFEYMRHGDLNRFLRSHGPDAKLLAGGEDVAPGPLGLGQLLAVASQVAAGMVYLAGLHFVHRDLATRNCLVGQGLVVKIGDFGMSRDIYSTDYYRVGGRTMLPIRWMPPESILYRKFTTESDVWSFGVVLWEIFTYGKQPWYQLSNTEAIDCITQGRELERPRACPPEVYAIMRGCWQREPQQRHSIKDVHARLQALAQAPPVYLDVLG
Experiment [6] has as its target Transcription intermediary factor 1-alpha (Homo sapiens) (UniProt O15164). Kind of experiment: Selectivity interaction (Bromodomain panel (DSF asssay)) EUB0000270b TRIM24.
Experiment [7] concerns the target T1, Tyrosine-protein kinase receptor TYRO3 (Homo sapiens) (UniProt Q06418).
T1 sequence (whole entry): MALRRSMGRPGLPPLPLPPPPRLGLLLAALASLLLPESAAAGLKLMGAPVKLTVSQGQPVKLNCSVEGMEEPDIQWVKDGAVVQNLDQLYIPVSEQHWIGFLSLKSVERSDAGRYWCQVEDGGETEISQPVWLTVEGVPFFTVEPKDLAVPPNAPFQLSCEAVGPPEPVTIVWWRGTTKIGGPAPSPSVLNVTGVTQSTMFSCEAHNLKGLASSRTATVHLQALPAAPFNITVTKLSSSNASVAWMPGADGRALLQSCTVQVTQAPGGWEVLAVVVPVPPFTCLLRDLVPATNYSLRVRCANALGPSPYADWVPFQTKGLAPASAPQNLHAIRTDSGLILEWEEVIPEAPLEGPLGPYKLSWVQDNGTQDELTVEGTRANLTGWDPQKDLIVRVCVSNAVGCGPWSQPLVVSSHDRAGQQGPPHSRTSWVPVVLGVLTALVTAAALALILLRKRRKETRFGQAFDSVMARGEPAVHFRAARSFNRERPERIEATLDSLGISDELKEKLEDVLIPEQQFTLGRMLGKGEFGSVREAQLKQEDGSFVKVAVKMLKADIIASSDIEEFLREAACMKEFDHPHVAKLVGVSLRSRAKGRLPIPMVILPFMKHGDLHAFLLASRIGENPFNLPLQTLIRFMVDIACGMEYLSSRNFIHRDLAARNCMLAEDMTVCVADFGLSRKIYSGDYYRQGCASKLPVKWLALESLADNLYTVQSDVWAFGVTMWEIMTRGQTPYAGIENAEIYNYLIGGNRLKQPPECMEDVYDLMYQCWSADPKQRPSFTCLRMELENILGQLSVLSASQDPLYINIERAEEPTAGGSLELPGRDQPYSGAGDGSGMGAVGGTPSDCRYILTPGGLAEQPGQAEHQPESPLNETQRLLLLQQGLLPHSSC
Kind of experiment: Selectivity interaction (KinomeScan (DiscoverX)) EUB0000229b TYRO3. As to conditions: at 10 µM.

For experiment [8], the target named is Phosphatidylinositol 4,5-bisphosphate 3-kinase catalytic subunit beta isoform (Homo sapiens) (UniProt P42338). Description: Selectivity interaction (KinomeScan (DiscoverX)) EUB0000595a PIK3CB. Particulars: at 10 µM.
Chain of Phosphatidylinositol 4,5-bisphosphate 3-kinase catalytic subunit beta isoform (Homo sapiens) (P42338 whole entry, looked up, canonical isoform): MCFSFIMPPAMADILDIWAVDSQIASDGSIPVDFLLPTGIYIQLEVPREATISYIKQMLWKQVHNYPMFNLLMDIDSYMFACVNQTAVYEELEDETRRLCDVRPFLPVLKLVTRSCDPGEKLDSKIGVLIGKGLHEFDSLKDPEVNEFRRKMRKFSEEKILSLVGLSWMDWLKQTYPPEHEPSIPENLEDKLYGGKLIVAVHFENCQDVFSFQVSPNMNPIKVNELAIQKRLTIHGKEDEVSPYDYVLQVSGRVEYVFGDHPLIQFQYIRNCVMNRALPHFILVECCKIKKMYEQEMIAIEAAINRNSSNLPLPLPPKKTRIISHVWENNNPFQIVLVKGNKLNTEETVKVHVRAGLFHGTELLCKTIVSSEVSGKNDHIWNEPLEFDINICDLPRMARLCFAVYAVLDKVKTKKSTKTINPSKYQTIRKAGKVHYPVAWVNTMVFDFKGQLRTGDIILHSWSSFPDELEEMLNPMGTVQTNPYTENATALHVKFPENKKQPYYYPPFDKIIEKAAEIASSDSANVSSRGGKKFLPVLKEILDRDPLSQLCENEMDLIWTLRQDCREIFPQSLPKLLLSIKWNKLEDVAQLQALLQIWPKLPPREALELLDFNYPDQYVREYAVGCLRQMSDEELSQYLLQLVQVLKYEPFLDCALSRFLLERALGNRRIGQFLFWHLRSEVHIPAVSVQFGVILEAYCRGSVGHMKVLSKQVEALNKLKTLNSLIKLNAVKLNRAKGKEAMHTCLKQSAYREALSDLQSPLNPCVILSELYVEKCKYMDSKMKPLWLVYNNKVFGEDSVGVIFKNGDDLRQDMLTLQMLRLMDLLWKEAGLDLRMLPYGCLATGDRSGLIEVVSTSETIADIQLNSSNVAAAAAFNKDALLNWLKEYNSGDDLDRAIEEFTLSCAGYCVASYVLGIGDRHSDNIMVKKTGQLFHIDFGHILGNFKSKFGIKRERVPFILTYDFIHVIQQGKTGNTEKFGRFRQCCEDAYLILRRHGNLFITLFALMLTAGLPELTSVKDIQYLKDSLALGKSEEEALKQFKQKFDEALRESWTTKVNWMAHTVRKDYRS
Experiment [9] addresses T2, MAP kinase-activated protein kinase 5 (Homo sapiens) (UniProt Q8IW41).
T2 sequence (whole entry): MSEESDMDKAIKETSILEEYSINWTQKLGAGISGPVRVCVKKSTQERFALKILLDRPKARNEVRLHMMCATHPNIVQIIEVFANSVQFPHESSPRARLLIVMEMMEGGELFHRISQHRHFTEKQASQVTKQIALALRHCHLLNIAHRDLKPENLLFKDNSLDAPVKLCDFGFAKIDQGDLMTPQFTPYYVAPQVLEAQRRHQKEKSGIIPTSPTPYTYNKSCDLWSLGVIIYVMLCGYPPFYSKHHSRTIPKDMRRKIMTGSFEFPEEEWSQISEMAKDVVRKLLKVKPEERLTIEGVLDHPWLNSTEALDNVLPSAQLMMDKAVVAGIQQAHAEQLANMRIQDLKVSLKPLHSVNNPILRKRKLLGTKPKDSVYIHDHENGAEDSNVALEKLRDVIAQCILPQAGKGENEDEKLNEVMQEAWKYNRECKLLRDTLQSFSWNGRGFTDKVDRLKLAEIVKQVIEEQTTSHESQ
Kind of experiment: Selectivity interaction (Kinase panel (literature)) EUB0001199aCl MAPKAPK5. As to conditions: at 1 µM.

The record followed here is ChEMBL document CHEMBL5465560, “Selectivity Literature for EUbOPEN Chemogenomic Library” (2024).

Chain of Tyrosine-protein kinase Fyn (Homo sapiens) (P06241 2-537 limits assumed): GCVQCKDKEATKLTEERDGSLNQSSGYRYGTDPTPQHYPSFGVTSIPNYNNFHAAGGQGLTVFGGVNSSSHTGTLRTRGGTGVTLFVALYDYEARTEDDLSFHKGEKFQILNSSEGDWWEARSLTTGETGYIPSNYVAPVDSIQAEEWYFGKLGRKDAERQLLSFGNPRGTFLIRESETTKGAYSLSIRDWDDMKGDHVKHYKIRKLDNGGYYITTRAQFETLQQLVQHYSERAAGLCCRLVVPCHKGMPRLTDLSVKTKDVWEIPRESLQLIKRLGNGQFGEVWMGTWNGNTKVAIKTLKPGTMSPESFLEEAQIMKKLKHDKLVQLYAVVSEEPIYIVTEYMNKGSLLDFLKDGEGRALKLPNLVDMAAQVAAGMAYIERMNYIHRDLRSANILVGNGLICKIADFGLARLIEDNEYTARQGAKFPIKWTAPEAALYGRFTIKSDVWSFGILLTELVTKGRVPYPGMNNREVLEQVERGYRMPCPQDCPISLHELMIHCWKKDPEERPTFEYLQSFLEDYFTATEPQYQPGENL
Chain of Serine/threonine-protein kinase PAK 2 (Homo sapiens) (Q13177 whole entry): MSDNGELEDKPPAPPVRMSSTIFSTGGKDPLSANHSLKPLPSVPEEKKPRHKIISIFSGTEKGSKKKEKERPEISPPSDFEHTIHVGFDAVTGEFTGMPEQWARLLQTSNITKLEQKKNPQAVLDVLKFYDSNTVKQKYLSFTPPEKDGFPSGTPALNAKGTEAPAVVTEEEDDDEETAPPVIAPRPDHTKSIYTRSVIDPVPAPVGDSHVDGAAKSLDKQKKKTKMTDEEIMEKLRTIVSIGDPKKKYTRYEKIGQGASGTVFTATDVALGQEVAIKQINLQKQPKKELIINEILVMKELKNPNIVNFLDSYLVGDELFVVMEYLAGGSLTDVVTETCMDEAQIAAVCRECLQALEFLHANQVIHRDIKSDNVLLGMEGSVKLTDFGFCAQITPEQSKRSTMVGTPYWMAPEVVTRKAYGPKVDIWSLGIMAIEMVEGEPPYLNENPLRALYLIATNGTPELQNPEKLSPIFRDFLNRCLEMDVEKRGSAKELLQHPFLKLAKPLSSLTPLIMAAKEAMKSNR
Chain of Transcription intermediary factor 1-alpha (Homo sapiens) (O15164 whole entry): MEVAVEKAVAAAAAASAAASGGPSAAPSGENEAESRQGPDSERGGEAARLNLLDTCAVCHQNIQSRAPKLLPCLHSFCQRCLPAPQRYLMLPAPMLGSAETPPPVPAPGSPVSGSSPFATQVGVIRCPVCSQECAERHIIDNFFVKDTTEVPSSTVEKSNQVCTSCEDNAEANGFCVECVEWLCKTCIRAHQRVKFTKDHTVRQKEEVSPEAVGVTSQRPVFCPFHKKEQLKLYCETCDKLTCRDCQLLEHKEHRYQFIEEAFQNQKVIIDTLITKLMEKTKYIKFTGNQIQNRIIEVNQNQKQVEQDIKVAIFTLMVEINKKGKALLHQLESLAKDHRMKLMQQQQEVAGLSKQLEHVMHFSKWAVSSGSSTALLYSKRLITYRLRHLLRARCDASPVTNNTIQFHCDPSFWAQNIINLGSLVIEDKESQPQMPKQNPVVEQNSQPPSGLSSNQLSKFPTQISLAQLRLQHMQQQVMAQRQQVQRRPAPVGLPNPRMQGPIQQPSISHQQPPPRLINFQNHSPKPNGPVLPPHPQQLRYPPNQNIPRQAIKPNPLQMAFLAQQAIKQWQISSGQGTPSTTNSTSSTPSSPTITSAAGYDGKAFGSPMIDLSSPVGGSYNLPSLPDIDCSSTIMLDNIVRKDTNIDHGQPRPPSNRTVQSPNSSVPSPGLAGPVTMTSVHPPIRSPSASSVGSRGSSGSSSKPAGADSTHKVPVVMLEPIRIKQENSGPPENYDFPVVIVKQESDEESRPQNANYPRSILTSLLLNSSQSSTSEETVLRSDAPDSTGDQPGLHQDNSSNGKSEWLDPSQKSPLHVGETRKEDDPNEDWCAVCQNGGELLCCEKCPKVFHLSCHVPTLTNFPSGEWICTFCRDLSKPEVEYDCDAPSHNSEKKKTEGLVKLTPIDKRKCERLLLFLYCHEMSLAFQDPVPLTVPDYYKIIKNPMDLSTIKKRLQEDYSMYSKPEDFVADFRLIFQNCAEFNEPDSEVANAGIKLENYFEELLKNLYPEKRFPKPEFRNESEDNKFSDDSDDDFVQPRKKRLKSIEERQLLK

`Cc1ccc(-c2ccc3c(ccc4sc5c(c43)NC[C@@H](C)NC5=O)n2)cn1`: the % of inhibition in experiment [1] was 24%; in experiment [2], 37%.

As for `C=CC(=O)Nc1cccc(C(=O)Nc2ccc(Nc3cc(-c4[nH]c(SC)nc4C)ccn3)cc2)c1`, the % of control in [3] (at 1 µM) worked out at 87%; in experiment [3] (at 5 µM) it was 79%.

In experiment [4], `CCC(=O)N1CCN(c2ccc(-n3c(=O)ccc4cnc5ccc(-c6cnc7ccccc7c6)cc5c43)cc2C(F)(F)F)CC1` registered a % of control of 79%. The compound `Cc1cc(F)c(C(=O)Nc2cccc(-c3nncn3C(C)C)n2)cc1-n1cnc(C2CC2)c1` had a % of control in experiment [5] of 79%. As to `Cc1cc(CN)cc(C)c1-c1ncn(C)c1-c1cncn1C`, the dTM in experiment [6] was -0.53 K. In experiment [7], `COc1cc(N(C)c2ccnc3ccc(C(F)(F)F)cc23)cc(OC)c1OC` returned a % binding of 80%.

Consider `COCC(=O)NC/C=C/c1ccc2ncnc(Nc3ccc(Oc4ccc(C)nc4)c(C)c3)c2c1` [CP-724714], for which the % of control in experiment [8] turned out to be 100%. With `CN1Cc2nccc(-c3cn(C)nc3-c3ccc(F)cc3)c2C1=O`, the % of inhibition in experiment [9] was -1%.
